According to patent US20160158200A1, “Combinations of Hepatitis C Virus Inhibitors” (priority 2013, published 2016):

tested on: HCV genotype-1a variant with glutamine 30 changed to glutamate in the NS5A protein; assay type: cell-based; settings: test compound titrated with BMS-790052 fixed at 200 nM; genotype 1a Q30E replicon
In short: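 Synergy was assessed by combining several fixed amounts of an NS5A-targeting compound with a titration of the second compound of interest.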

SMILES | Fold-Synergistic 1a (Q30E)
CCOC(=O)C(=O)N[C@H](c1nc(-c2ccc(-c3ccc(-c4c[nH]c([C@@H](NC(=O)C(=O)OCC)C(C)(C)C)n4)cc3)cc2)c[nH]1)C(C)(C)C [Compound W-30] | >100 fold
CC(C)(C)[C@H](Nc1ncccn1)c1nc(-c2ccc(-c3ccc(-c4c[nH]c([C@@H](Nc5ncc(Br)cn5)C(C)(C)C)n4)cc3)cc2)c[nH]1 [Compound W-31] | >10 fold
CC(C)(C)[C@H](NC(=O)C(=O)N1CCCCCC1)c1nc(-c2ccc(-c3ccc(-c4c[nH]c([C@@H](NC(=O)C(=O)N5CCCCCC5)C(C)(C)C)n4)cc3)cc2)c[nH]1 [Compound W-32] | >100 fold
CCN(CC)C(=O)C(=O)N[C@H](c1nc(-c2ccc(-c3ccc(-c4c[nH]c([C@@H](NC(=O)C(=O)N(CC)CC)C(C)(C)C)n4)cc3)cc2)c[nH]1)C(C)(C)C [Compound W-33] | >100 fold
CN1CCN(C(=O)C(=O)N[C@H](c2nc(-c3ccc(-c4ccc(-c5c[nH]c([C@@H](NC(=O)C(=O)N6CCN(C)CC6)C(C)(C)C)n5)cc4)cc3)c[nH]2)C(C)(C)C)CC1 [Compound W-35] | >100 fold
CCN(CC(F)(F)F)C(=O)C(=O)N[C@H](c1nc(-c2ccc(-c3ccc(-c4c[nH]c([C@@H](NC(=O)C(=O)N(CC)CC(F)(F)F)C(C)(C)C)n4)cc3)cc2)c[nH]1)C(C)(C)C [Compound W-37] | >100 fold
CC1CCCCN1C(=O)C(=O)NC(c1nc(-c2ccc(-c3ccc(-c4c[nH]c(C(NC(=O)C(=O)N5CCCCC5C)C(C)(C)C)n4)cc3)cc2)c[nH]1)C(C)(C)C (stereo not shown) [Compound W-38] | >100 fold
CC1([C@H](NC(=O)C(=O)N2CCC(F)(F)CC2)c2nc(-c3ccc(-c4ccc(-c5c[nH]c([C@@H](NC(=O)C(=O)N6CCC(F)(F)CC6)C6(C)CC6)n5)cc4)cc3)c[nH]2)CC1.O=C(O)C(F)(F)F [Compound W-39] | >100 fold
CC(C)(C)[C@H](NC(=O)[C@@]1(N)C[C@@H]1c1ccccc1)c1nc(-c2ccc(-c3ccc(-c4c[nH]c([C@@H](NC(=O)[C@@]5(N)C[C@@H]5c5ccccc5)C(C)(C)C)n4)cc3)cc2)c[nH]1 [Compound W-41] | >100 fold
CC(C)(C)[C@H](NC(=O)C(N)=O)c1nc(-c2ccc(-c3ccc(-c4c[nH]c([C@@H](NC(=O)C(N)=O)C(C)(C)C)n4)cc3)cc2)c[nH]1 [Compound W-42] | >10 fold
CC(C)(C)OC(=O)C(=O)N[C@H](c1nc(-c2ccc(-c3ccc(-c4c[nH]c([C@@H](NC(=O)C(=O)OC(C)(C)C)C(C)(C)C)n4)cc3)cc2)c[nH]1)C(C)(C)C [Compound W-43A] | >100 fold
CCNC(=O)C(=O)N[C@H](c1nc(-c2ccc(-c3ccc(-c4c[nH]c([C@@H](NC(=O)C(=O)OC(C)(C)C)C(C)(C)C)n4)cc3)cc2)c[nH]1)C(C)(C)C [Compound W-43B] | >100 fold
CC(C)(C)[C@H](NC(=O)C(=O)O)c1nc(-c2ccc(-c3ccc(-c4c[nH]c([C@@H](NC(=O)C(=O)O)C(C)(C)C)n4)cc3)cc2)c[nH]1 [Compound W-44] | >10 fold
C[C@@H]1CN(C(=O)C(=O)N[C@H](c2nc(-c3ccc(-c4ccc(-c5c[nH]c([C@@H](NC(=O)C(=O)N6C[C@@H](C)O[C@@H](C)C6)C(C)(C)C)n5)cc4)cc3)c[nH]2)C(C)(C)C)C[C@H](C)O1 [Compound W-45] | >100 fold
CC(C)(C)[C@H](NC(=O)C(=O)N1CCCC(F)(F)C1)c1nc(-c2ccc(-c3ccc(-c4c[nH]c([C@@H](NC(=O)C(=O)N5CCCC(F)(F)C5)C(C)(C)C)n4)cc3)cc2)c[nH]1 [Compound W-46A] | >100 fold
CC(C)(C)[C@H](NC(=O)C(=O)N(CCC#N)C1CC1)c1nc(-c2ccc(-c3ccc(-c4c[nH]c([C@@H](NC(=O)C(=O)N(CCC#N)C5CC5)C(C)(C)C)n4)cc3)cc2)c[nH]1 [Compound W-48] | >100 fold
CC(C)N(C(=O)C(=O)N[C@H](c1nc(-c2ccc(-c3ccc(-c4c[nH]c([C@@H](NC(=O)C(=O)N(C(C)C)C5CC5)C(C)(C)C)n4)cc3)cc2)c[nH]1)C(C)(C)C)C1CC1 [Compound W-49] | >100 fold
CN(C(=O)C(=O)N[C@H](c1nc(-c2ccc(-c3ccc(-c4c[nH]c([C@@H](NC(=O)C(=O)N(C)C5CC5)C(C)(C)C)n4)cc3)cc2)c[nH]1)C(C)(C)C)C1CC1 [Compound W-50] | >100 fold
CC(C)C(NC(=O)C(=O)N1CCCCCC1)c1nc(-c2ccc(-c3ccc(-c4c[nH]c(C(NC(=O)C(=O)N5CCCCCC5)C(C)C)n4)cc3)cc2)c[nH]1 (stereo not shown) [Compound W-52] | >100 fold
CC(C)C(NC(=O)C(=O)N1CCC(C(F)(F)F)CC1)c1nc(-c2ccc(-c3ccc(-c4c[nH]c(C(NC(=O)C(=O)N5CCC(C(F)(F)F)CC5)C(C)C)n4)cc3)cc2)c[nH]1 (stereo not shown) [Compound W-53] | >100 fold

SMILES | Fold-Synergistic 1a (Q30E)
CC1CN(C(=O)C(=O)NC(c2nc(-c3ccc(-c4ccc(-c5c[nH]c(C(NC(=O)C(=O)N6CC(C)OC(C)C6)C(C)C)n5)cc4)cc3)c[nH]2)C(C)C)CC(C)O1 (stereo not shown) [Compound W-54] | >100 fold
CC(C)C(NC(=O)C(=O)N(C(C)C)C1CC1)c1nc(-c2ccc(-c3ccc(-c4c[nH]c(C(NC(=O)C(=O)N(C(C)C)C5CC5)C(C)C)n4)cc3)cc2)c[nH]1 (stereo not shown) [Compound W-55] | >100 fold
CCN(CC(F)(F)F)C(=O)C(=O)NC(c1nc(-c2ccc(-c3ccc(-c4c[nH]c(C(NC(=O)C(=O)N(CC)CC(F)(F)F)C(C)C)n4)cc3)cc2)c[nH]1)C(C)C (stereo not shown) [Compound W-56] | >100 fold
CC1([C@H](NC(=O)C(=O)N2CCCCCC2)c2nc(-c3ccc(-c4ccc(-c5c[nH]c([C@@H](NC(=O)C(=O)N6CCCCCC6)C6(C)CC6)n5)cc4)cc3)c[nH]2)CC1 [Compound W-57] | >100 fold
CC(C)N(C(=O)C(=O)N[C@H](c1nc(-c2ccc(-c3ccc(-c4c[nH]c([C@@H](NC(=O)C(=O)N(C(C)C)C5CC5)C5(C)CC5)n4)cc3)cc2)c[nH]1)C1(C)CC1)C1CC1 [Compound W-58] | >100 fold
CC1([C@H](NC(=O)C(=O)N2CCC(C(F)(F)F)CC2)c2nc(-c3ccc(-c4ccc(-c5c[nH]c([C@@H](NC(=O)C(=O)N6CCC(C(F)(F)F)CC6)C6(C)CC6)n5)cc4)cc3)c[nH]2)CC1 [Compound W-59] | >100 fold
CC(C)(C)[C@H](NC(=O)C(=O)N1CCC(C(F)(F)F)CC1)c1nc(-c2ccc(-c3ccc(-c4c[nH]c([C@@H](NC(=O)C(=O)N5CCC(C(F)(F)F)CC5)C(C)(C)C)n4)cc3)cc2)c[nH]1 [Compound W-60] | >100 fold
C[C@@H]1CN(C(=O)C(=O)N[C@H](c2nc(-c3ccc(-c4ccc(-c5c[nH]c([C@@H](NC(=O)C(=O)N6C[C@@H](C)O[C@@H](C)C6)C6(C)CC6)n5)cc4)cc3)c[nH]2)C2(C)CC2)C[C@H](C)O1 [Compound W-61] | >100 fold
CC1([C@H](NC(=O)C2(N3CCC(F)(F)CC3)COC2)c2nc(-c3ccc(-c4ccc(-c5c[nH]c([C@@H](NC(=O)C6(N7CCC(F)(F)CC7)COC6)C6(C)CC6)n5)cc4)cc3)c[nH]2)CC1 [Compound W-62] | >100 fold
CC(C)(C)[C@H](NC(=O)C1(N2CCC(F)(F)CC2)COC1)c1nc(-c2ccc(-c3ccc(-c4c[nH]c([C@@H](NC(=O)C5(N6CCC(F)(F)CC6)COC5)C(C)(C)C)n4)cc3)cc2)c[nH]1 [Compound W-63] | >100 fold
CC(C)C(NC(=O)C1(N2CCC(F)(F)CC2)COC1)c1nc(-c2ccc(-c3ccc(-c4c[nH]c(C(NC(=O)C5(N6CCC(F)(F)CC6)COC5)C(C)C)n4)cc3)cc2)c[nH]1 (stereo not shown) [Compound W-64] | >100 fold
CC(C)C(NC(=O)C(=O)N(CC(F)(F)F)C(C)C)c1nc(-c2ccc(-c3ccc(-c4c[nH]c(C(NC(=O)C(=O)N(CC(F)(F)F)C(C)C)C(C)C)n4)cc3)cc2)c[nH]1 (stereo not shown) [Compound W-65] | >100 fold
CC(C)N(CC(F)(F)F)C(=O)C(=O)N[C@H](c1nc(-c2ccc(-c3ccc(-c4c[nH]c([C@@H](NC(=O)C(=O)N(CC(F)(F)F)C(C)C)C(C)(C)C)n4)cc3)cc2)c[nH]1)C(C)(C)C [Compound W-66] | >100 fold
CC1CC(C(=O)NC(c2nc(-c3ccc(-c4ccc(-c5c[nH]c(C(NC(=O)C6CC(C)CN6C(=O)OC(C)(C)C)C6(C)CC6)n5)cc4)cc3)c[nH]2)C2(C)CC2)N(C(=O)OC(C)(C)C)C1 (stereo not shown) [Compound W-71] | >100 fold
CC(C)C(NC(=O)C1C2CC2CN1C(=O)OC(C)(C)C)c1nc(-c2ccc(-c3ccc(-c4c[nH]c(C(NC(=O)C5C6CC6CN5C(=O)OC(C)(C)C)C(C)C)n4)cc3)cc2)c[nH]1 (stereo not shown) [Compound W-74] | >100 fold
CC(C)(C)OC(=O)N1CC2CC2C1C(=O)NC(c1nc(-c2ccc(-c3ccc(-c4c[nH]c(C(NC(=O)C5C6CC6CN5C(=O)OC(C)(C)C)C(C)(C)C)n4)cc3)cc2)c[nH]1)C(C)(C)C (stereo not shown) [Compound W-79] | >100 fold
CC(C)(C)OC(=O)N1C2CCC1(C(=O)N[C@H](c1nc(-c3ccc(-c4ccc(-c5c[nH]c([C@@H](NC(=O)C67CCC(CC6)N7C(=O)OC(C)(C)C)C(C)(C)C)n5)cc4)cc3)c[nH]1)C(C)(C)C)CC2 [Compound W-85] | >100 fold
CC(C)(C)OC(=O)N1CCCC1C(=O)N[C@H](c1nc(-c2ccc(-c3ccc(-c4c[nH]c([C@@H](NC(=O)C5CCCN5C(=O)OC(C)(C)C)C(C)(C)C)n4)cc3)cc2)c[nH]1)C(C)(C)C (stereo partly shown) [Compound W-86] | >100 fold
CC(C)(C)OC(=O)N1CCCC1C(=O)NC(c1nc(-c2ccc(-c3ccc(-c4c[nH]c(C(NC(=O)C5CCCN5C(=O)OC(C)(C)C)C(C)(C)C)n4)cc3)cc2)c[nH]1)C(C)(C)C (stereo not shown) [Compound W-87] | >100 fold
CC(C)(C)OC(=O)N1CC(F)(F)C[C@H]1C(=O)N[C@H](c1nc(-c2ccc(-c3ccc(-c4c[nH]c([C@@H](NC(=O)[C@@H]5CC(F)(F)CN5C(=O)OC(C)(C)C)C(C)(C)C)n4)cc3)cc2)c[nH]1)C(C)(C)C [Compound W-88] | >100 fold
